Reference: patent US4397868A, “Method of treating atherosclerosis with trisubstituted ureas” (American Cyanamid Company, priority 1982, dated 1983)

System: fatty acyl CoA:cholesterol acyl transferase (ACAT)
Experiment: In vitro inhibition of fatty acyl CoA:cholesterol acyl transferase (ACAT), rat adrenal microsomal supernatant
Assay type: biochemical
Details: test compound final concentration 5.2 μg./ml., 14C-oleoyl CoA, 37° C., 10 minutes
Experimental: A representative compound of the present invention was assayed for a biological activity related to potential use as an antiatherosclerotic agent. The compound was tested in vitro for its ability to inhibit the enzyme fatty acyl CoA:cholesterol acyl transferase (ACAT).
A representative compound was tested for its ability to inhibit ACAT according to the following procedure:
Rat adrenals were homogenized in 0.2 M monobasic potassium phosphate buffer, pH 7.4, and centrifuged at 1000 times gravity for 15 minutes at 5° C. The supernatant, containing the microsomal fraction, served as the source of the cholesterol-esterifying enzyme, fatty acyl CoA:cholesterol acyl transferase (ACAT). A mixture comprising 50 parts of adrenal supernatant, 10 parts of albumin (BSA) (50 mg./ml.), 3 parts of test compound (final concentration 5.2 μg./ml.) and 500 parts of buffer was preincubated at 37° C. for 10 minutes. After treatment with 20 parts of oleoyl CoA (^14 C-0.4 μCi) the mixture was incubated at 37° C. for 10 minutes. A control mixture, omitting the test compound, was prepared and treated in the same manner. The lipids from the incubation mixture were extracted into an organic solvent and separated by thin-layer chromatography. The cholesterol ester fraction was counted in a scintillation counter. […]

## CCCCN(Cc1ccccc1)C(=O)Nc1ccccc1 [Example 1, 1-Benzyl-1-(n-butyl)-3-(phenyl)urea]
  inhibited ACAT: 82%
